# Laboratory results taken from patent publication US20260193180A1, “AUTOPHAGY INDUCING COMPOUNDS AND USES THEREOF” (SAMSARA THERAPEUTICS INC., priority 2022, published 2026).
# Key:
# Prp-TDP43 mice = assay: Mouse model of Amyotrophic Lateral Sclerosis (ALS); conditions: 30 mg/kg once per day, oral gavage; for increase in mean CAMP amplitude compared to the vehicle controlled group: sciatic nerve
# [1] = system: dopaminergic Tyrosine hydroxylase (TH)-positive neurons; assay: Cellular model of Parkinson's disease, MPP+ injury of primary mesencephalic culture; type: cell-based, rat; conditions: 0.5 μM, MPP+ 4 μM for 48 h
# Description: This model (supplied by Neuro-Sys SAS, France) is based on a primary culture of dopaminergic Tyrosine hydroxylase (TH)-positive neurons injured with the dopaminergic neurons-specific toxin (DA-toxin) 1-methyl-4-phenyl-1,2,3,6 tetrahydropyridine (MPTP) (Dauer and Przedborski, 2003). Any substances reducing DA-toxin neurotoxicity may be useful as a new therapeutic agent for the treatment or prevention of PD.
# Primary culture of mesencephalic neurons: Rat dopaminergic neurons were cultured as described by Visanji et al., 2008 and Callizot et al., 2019. Briefly, pregnant female rat (Wistar) of 15 days of gestation were killed using a deep anesthesia with CO2 chamber and a cervical dislocation. The midbrains obtained from 15-day-old rat embryos (Janvier, France) were dissected under a microscope. The embryonic midbrains will be removed and placed in ice-cold medium of Leibovitz (L15) containing 2% of Penicillin-Streptomycin (PS) and 1% of bovine serum albumin (BSA). The ventral portion of the mesencephalic flexure, a region of the developing brain rich in dopaminergic neurons, was used for the cell preparations.
# The midbrains were dissociated by trypsinisation for 20 min at 37° C. (solution at a final concentration of 0.05% trypsin and 0.02% EDTA). The reaction was stopped by the addition of Dulbecco's modified Eagle's medium (DMEM) containing DNAase I grade II (0.5 mg/mL) and 10% of foetal calf serum (FCS). Cells were then mechanically dissociated by 3 passages through a 10 ml pipette. Cells were then centrifuged at 180×g for 10 min at +4° C. on a layer of BSA (3.5%) in L15 medium. The supernatant was discarded and the cell pellets re-suspended in a defined culture medium consisting of Neurobasal supplemented with B27 (2%), L-glutamine (2 mM) and 2% of PS solution and 10 ng/mL of Brain-derived neurotrophic factor (BDNF) and 1 ng/mL of Glial-Derived Neurotrophic Factor (GDNF). Viable cells were counted in a Neubauer cytometer using the trypan blue exclusion test. […]
compound,measurement,setting,value
"CCOc1ccc(Cl)cc1CN1CC[C@@H](CN)C1.Cl [Compound 12, (S)-(1-(5-chloro-2-ethoxybenzyl)pyrrolidin-3-yl)methanamine hydrochloride]",body weight compared to the vehicle group,Prp-TDP43 mice,increase
same,mortality,Prp-TDP43 mice; 60 days,No mortality was observed
same,pathological clinical signs,Prp-TDP43 mice; 60 days,No pathological clinical sign was observed
same,decrease in mean NfL concentration (plasma) compared to the vehicle controlled group,Prp-TDP43 mice; at three months of age,54%
same,increase in mean NCV (nerve conduction velocity) compared to the vehicle controlled group,Prp-TDP43 mice; at three months of age,139%
same,increase in mean rotarod latency compared to the vehicle controlled group,Prp-TDP43 mice; at three months of age,99%
same,increase in mean CAMP amplitude compared to the vehicle controlled group,Prp-TDP43 mice; at three months of age,73%
same,decrease in mean NfL concentration (plasma) compared to the vehicle controlled group,Prp-TDP43 mice; at two months of age,48%
same,increase in mean rotarod latency compared to the vehicle controlled group,Prp-TDP43 mice; at two months of age,76%
same,increase in mean CAMP amplitude compared to the vehicle controlled group,Prp-TDP43 mice; at two months of age,39%
same,neurite network of TH positive neurons,[1],protected
same,neuronal survival (total number of TH positive neurons),[1],improved
same,α-Synuclein aggregation in dopaminergic neurons,[1],reduced
